Experimental data reported in patent publication US20260021061A1, “ARIADNE AND ANALOGS FOR THE TREATMENT OF NEUROLOGICAL AND NEUROMUSCLAR DISORDERS” (priority 2022, published 2026).
Counter-ions that a name gives are not always drawn. Like-named read-outs stand apart in the source and are kept apart here.

Experiments:
C57BL/6J mice [1] = assay: Open field locomotion in mice; type: in vivo, mouse
C57BL/6J mice [2] = assay: Head twitch response (HTR) in mice; type: in vivo, mouse; details: s.c.
Method: All samples were prepared the same day testing was performed. Solids were weighed into small vials and dissolved in USP grade 0.85% saline with addition of 2 molar equivalents of glacial acetic acid. Sonication and gentle heating were applied until complete dissolution. The compounds were subsequently filtered through 0.45 μm filters into a new glass vial. All compounds were administered at a 1 mg/kg subcutaneous dose at a volume of 10 mL/kg of body weight. Volinanserin hydrochloride salt (MDL 100907) was purchased from Toronto Research Chemicals.
All experimental procedures involving animals were approved by an Institutional Animal Care and Use Committee (IACUC) and adhered to principles described in the National Institutes of Health Guide for the Care and Use of Laboratory Animals. The studies were conducted at AAALAC accredited facilities. Animals received regular veterinary care (weekly by institutional veterinarians) including daily health monitoring (by experimenters) of the animals (observing home cage behaviors, nesting, and body weight). All procedures were designed to minimize any stress/distress. Healthy adult male mice C57BL/6J (8-12 weeks, 26-33 g) were purchased from the Jackson Laboratory (Bar Harbor, ME) and housed 5 mice per cage with food and water available ad libitum. Mice were maintained on a 12-h light/dark cycle (lights on 7:00-19:00) and all testing was done in the light cycle. Temperature was kept constant at 22±2° C., and relative humidity was maintained at 50±5%
The head-twitch response evaluation was performed by a trained observer who was blinded to both drug and dose. Mice were moved to the testing room 30 min before the experiment to allow for acclimation. The body weight of each mouse was recorded. Mice were administered either a 1, 3, 10, or 30 mg/kg s.c. dose of compound solution (volume of injection 260-330 μL based on body weight). […] The total number of head-twitches over the 15 minute period were recorded. Five mice were used per dose.
DOI was tested at the doses of 0.3, 1, 3, and 10 mg/kg (s.c., 5 mice per dose) and testing began immediately after administration of the compound. Ariadne was tested at the doses of 1, 3, 10, and 30 mg/kg (s.c., 5 mice per dose) and there was a 10 min interval between treatment and testing.

5-HT2A [3] = biological target: T1, 5-HT2A (Homo sapiens, UniProt P28223); assay: Radioligand displacement assay; type: binding
Method: Therefore, an orthogonal assay measuring calcium flux was also performed for the 5-HT2 receptors (Klein et al., 2020).

5-HT2A [4] = biological target: T1, 5-HT2A; assay: IP1 agonism (IP1 formation assay), Cerep, Eurofins; type: cell-based; parameters: purchased Cerep, Eurofins (contract assay); details: duplicate averages only
From the text: (§1) FIGS. 8A-B Comparison of 5-HT2A (a) and 5-HT2B (b) receptor in IP1 formation assay for selected compounds, performed at Cerep, Eurofins.
(§2) IP1 agonism summary for selected compounds (duplicate averages only), performed at Cerep, Eurofins.

5-HT2B [5] = biological target: T2, 5-HT2B (Homo sapiens, UniProt P41595); assay: IP1 agonism (IP1 formation assay), Cerep, Eurofins; type: cell-based; parameters: purchased Cerep, Eurofins (contract assay); details: duplicate averages only
From the text: as §1, §2

5-HT2A [6] = biological target: T1, 5-HT2A; assay: G protein (Gq) dissociation BRET assay; type: cell-based; parameters: host or cells: HEK293T (ATCC CRL-11268)
5-HT2C receptor = biological target: T3, 5-HT2C receptor (Homo sapiens, UniProt P28335); assay: G protein (Gq) dissociation BRET assay; details: read-out: Emax/Gq
T3 sequence (P28335 33-458): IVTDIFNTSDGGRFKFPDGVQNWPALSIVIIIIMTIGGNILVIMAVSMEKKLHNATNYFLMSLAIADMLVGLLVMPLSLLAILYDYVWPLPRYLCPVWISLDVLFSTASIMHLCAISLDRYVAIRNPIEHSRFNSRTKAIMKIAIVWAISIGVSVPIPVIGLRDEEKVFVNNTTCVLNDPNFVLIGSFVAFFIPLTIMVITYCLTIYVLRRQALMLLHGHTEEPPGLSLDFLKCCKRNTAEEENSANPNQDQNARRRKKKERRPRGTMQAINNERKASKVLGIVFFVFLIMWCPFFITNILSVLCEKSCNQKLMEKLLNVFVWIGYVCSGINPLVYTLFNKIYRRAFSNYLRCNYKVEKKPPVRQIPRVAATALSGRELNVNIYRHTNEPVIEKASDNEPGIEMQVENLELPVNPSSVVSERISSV
Method: (§3) All BRET assays were conducted using BRET2 in HEK293T cells (ATCC CRL-11268; mycoplasma-free), which were subcultured in high-glucose DMEM (VWR) supplemented with 10% FBS (Life Technologies).
(§4) Constructs in G protein-dissociation BRET assays were derived from the codon-optimized Tango pcDNA3.1 library (Addgene) with V2tail/TEV/tTA encoding regions deleted to yield “de-Tango” constructs. […] All Gα-Rluc8, Beta, and GFP2-γ constructs were derived from the TRUPATH pcDNA5/FRT/TO library (Addgene).
(§5) Approximately 48 hours before assays, cells were transfected using a reverse transfection method and plated in 1% dFBS at an approximate density of 15,000 cells per well into poly-L-lysine-coated 384-well white assay plates (Grenier Bio-One). For G protein-dissociation assays, cells were transfected in a 1:1:1:1 ratio of receptor: Gα-Rluc8: Beta: GFP2-γ constructs. […] All transfections were prepared in Opti-MEM (Invitrogen) and used a 3:1 ratio of TransIT-2020 (Mirus) uL:ug total DNA.
(§6) On the day of the assay, plates were decanted and 20 uL of drug buffer per well (1×HBSS, 20 mM HEPES, pH 7.4) was added using a Multidrop (ThermoFisher Scientific), and plates were allowed to equilibrate at 37° C. in a humidified incubator before receiving drug stimulation. Drug dilutions of all compounds were performed in McCorvy buffer (1×HBSS, 20 mM HEPES, pH 7.4, supplemented with 0.3% BSA fatty acid free (GoldBio), and 0.03% ascorbic acid). […] Next, plates were incubated at 37° C. in a humidified incubator for 60 minutes or specified time point. Before reading, addition of coelenterazine 400a (5 uM final concentration; Nanolight Technology) was performed by the [sequence]. Immediately after, plates were read at 400 nm Rluc and fluorescent GFP2 emission at 510 nm for BRET2 at 0.8 second per well using a PheraStarFSX (BMB Lab Tech).
(§7) The BRET ratios of 510/400 luminescence were calculated per well and were plotted as a function of drug concentration using Graphpad Prism 5 or 9 (Graphpad Software Inc., San Diego, CA). Data were normalized to % positive control stimulation and analyzed using nonlinear regression “log(agonist) vs. response” to yield Emax and EC50 parameter estimates.

5-HT2B [7] = biological target: T2, 5-HT2B; assay: G protein (Gq) dissociation BRET assay
Method: as §3, §4, §5, §6, §7

humans = details: per oral administration; cited from earlier work
[8] = EC50 (5-HT2A) (M), Table 7, IP1 agonism
[9] = EC50 (5-HT2B) (M), Table 7, IP1 agonism

T1 sequence (P28223 whole entry): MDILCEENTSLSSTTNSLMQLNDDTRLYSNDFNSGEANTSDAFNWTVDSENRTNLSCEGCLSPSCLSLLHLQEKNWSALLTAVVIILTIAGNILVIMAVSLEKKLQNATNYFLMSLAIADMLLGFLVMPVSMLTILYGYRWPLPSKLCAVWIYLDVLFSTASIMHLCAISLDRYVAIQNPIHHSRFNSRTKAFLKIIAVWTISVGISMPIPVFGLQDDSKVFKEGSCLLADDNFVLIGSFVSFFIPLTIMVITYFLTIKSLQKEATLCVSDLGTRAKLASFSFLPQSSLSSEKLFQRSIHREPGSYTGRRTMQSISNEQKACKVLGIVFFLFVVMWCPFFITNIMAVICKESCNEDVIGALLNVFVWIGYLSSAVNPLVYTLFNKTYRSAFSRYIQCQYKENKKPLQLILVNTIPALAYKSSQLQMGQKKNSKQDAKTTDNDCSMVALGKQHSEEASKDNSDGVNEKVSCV
T2 sequence (P41595 whole entry): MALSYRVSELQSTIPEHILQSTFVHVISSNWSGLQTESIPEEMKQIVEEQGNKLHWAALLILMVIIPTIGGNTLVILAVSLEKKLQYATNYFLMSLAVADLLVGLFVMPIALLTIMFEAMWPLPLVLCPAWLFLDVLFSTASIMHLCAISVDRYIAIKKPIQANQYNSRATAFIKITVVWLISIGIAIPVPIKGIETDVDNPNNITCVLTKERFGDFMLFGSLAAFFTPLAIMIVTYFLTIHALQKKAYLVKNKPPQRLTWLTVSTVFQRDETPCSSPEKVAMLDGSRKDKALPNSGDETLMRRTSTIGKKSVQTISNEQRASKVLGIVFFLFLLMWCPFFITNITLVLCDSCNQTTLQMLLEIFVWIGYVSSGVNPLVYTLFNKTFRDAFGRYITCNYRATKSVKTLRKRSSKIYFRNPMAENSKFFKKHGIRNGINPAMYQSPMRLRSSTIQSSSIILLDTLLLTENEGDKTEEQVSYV

Compound: CCCc1cc(OC)c(CC(C)N)cc1OC (racemic) [Compound 44, 1-(2,5-dimethoxy-4-propylphenyl) propan-2-amine, reference compound]
- time in the center of the arena (C57BL/6J mice [1]; open field): trend for spending less time in the center
- effects on locomotion (C57BL/6J mice [1]; s.c., trending toward increased locomotion at HTR peak dose (1 mg/kg)): minor to no effects on locomotion
- HTR response (C57BL/6J mice [2]): robust dose-dependent HTR response
- dose of maximum (peak) HTR (C57BL/6J mice [2]): 1 mg/kg
- time to maximum HTR frequency post-drug administration (C57BL/6J mice [2]): 10 min

Compound: CC[C@H](N)Cc1cc(OC)c(C)cc1OC [(S)-Ariadne]
- Ki (5-HT2A [3]): 220 nM

Compound: CCC(N)Cc1cc(OC)c(C#N)cc1OC (centres unmarked) [Compound 4, 4-(2-aminobutyl)-2,5-dimethoxybenzonitrile trifluoroacetate]
- EC50 (5-HT2A [4]; 5-HT2a (IP1 agonism), Table 2): 1.1e-05 M

Compound: CCSc1cc(OC)c(CC(N)CC)cc1OC (centres unmarked) [Compound 27, 1-(4-(ethylthio)-2,5-dimethoxyphenyl)butan-2-amine]
- EC50 (5-HT2A [4]; 5-HT2a (IP1 agonism), Table 2): 5.3e-08 M
- EC50 (5-HT2B [5]; 5-HT2b (IP1 agonism), Table 2): 6.3e-07 M

Compound: CCC(N)Cc1cc(OC)c(SC)cc1OC (centres unmarked) [Compound 28, 1-(2,5-dimethoxy-4-(methylthio)phenyl)butan-2-amine]
- EC50 (5-HT2A [4]; 5-HT2a (IP1 agonism), Table 2): 1.6e-07 M
- EC50 (5-HT2B [5]; 5-HT2b (IP1 agonism), Table 2): 6.6e-08 M

Compound: CCC(N)Cc1cc(OC)c(C2CC2)cc1OC (centres unmarked) [Compound 30, 1-(4-cyclopropyl-2,5-dimethoxyphenyl)butan-2-amine]
- EC50 (5-HT2A [4]; 5-HT2a (IP1 agonism), Table 2): 3.7e-06 M

Compound: CCC(N)Cc1cc(OC)c(Br)cc1OC (centres unmarked) [Compound 31, 1-(4-bromo-2,5-dimethoxyphenyl)butan-2-amine]
- EC50 (5-HT2A [4]; 5-HT2a (IP1 agonism), Table 2): 9e-08 M
- EC50 (5-HT2B [5]; 5-HT2b (IP1 agonism), Table 2): 5.5e-06 M

Compound: CCC(N)Cc1cc(OC)c(S(C)(=O)=O)cc1OC (centres unmarked) [Compound 33, 1-(2,5-dimethoxy-4-(methylsulfonyl)phenyl)butan-2-amine trifluoroacetate]
- EC50 (5-HT2A [4]; 5-HT2a (IP1 agonism), Table 2): 3.4e-06 M
- EC50 (5-HT2B [5]; 5-HT2b (IP1 agonism), Table 2): 2.5e-05 M

Compound: CCC(N)Cc1cc(OC)c(I)cc1OC (centres unmarked) [Compound 34, 1-(4-iodo-2,5-dimethoxyphenyl)butan-2-amine]
- EC50 (5-HT2A [6]; EC50 (EC50/Gq), Gq dissociation, Gq dissociation BRET): 16 nM
- increase in Gq potency compared to Ariadne (5-HT2A [6]; EC50/Gq comparison): > 10 fold
- EC50 (5-HT2A [4]; 5-HT2a (IP1 agonism), Table 2): 9.7e-06 M
- EC50 (5-HT2B [5]; 5-HT2b (IP1 agonism), Table 2): 1.8e-05 M

Compound: CCc1cc(OC)c(CC(N)CC)cc1OC (centres unmarked) [Compound 35, 1-(4-ethyl-2,5-dimethoxyphenyl)butan-2-amine]
- EC50 (5-HT2A [4]; 5-HT2a (IP1 agonism), Table 2): 1.9e-06 M
- EC50 (5-HT2B [5]; 5-HT2b (IP1 agonism), Table 2): 5.7e-07 M

Compound: CCOc1cc(CC(N)CC)c(OC)cc1C(F)(F)F (centres unmarked) [Compound 36, 1-(5-ethoxy-2-methoxy-4-(trifluoromethyl)phenyl)butan-2-amine]
- EC50 (5-HT2A [4]; 5-HT2a (IP1 agonism), Table 2): 2.8e-07 M
- EC50 (5-HT2B [5]; 5-HT2b (IP1 agonism), Table 2): 9.5e-07 M

Compound: CCC(N)Cc1cc(OC)c(COC)cc1OC (centres unmarked) [Compound 37, 1-(2,5-dimethoxy-4-(methoxymethyl)phenyl)butan-2-amine]
- less potent at 5-HT2A compared to Ariadne (5-HT2A [6]; Gq dissociation): approximately 2 fold
- Emax (5-HT2A [6]; Gq dissociation BRET, normalized to 5-HT, read-out: Emax (Emax/Gq) relative to 5-HT): 78%
- Emax (5-HT2C receptor): 82%
- HTR response (C57BL/6J mice [2]): only residual HTR
- potency at 5-HT2B compared to Ariadne (5-HT2B [7]; Gq dissociation): twice as potent
- Emax (5-HT2B [7]; read-out: Emax/Gq): 43%

Compound: COc1cc(CC(N)C2CC2)c(OC)cc1C (centres unmarked) [Compound 38, 1-cyclopropyl-2-(2,5-dimethoxy-4-methylphenyl)ethan-1-amine]
- EC50 (5-HT2A [4]; Table 2, read-out: 5-HT2a (IP1 agonism)): 9.7e-06 M
- EC50 (5-HT2B [5]; Table 2, read-out: 5-HT2b (IP1 agonism)): 2.1e-05 M

Compound: CCCC(N)Cc1cc(OC)c(C)cc1OC (centres unmarked) [Compound 39, 1-(2,5-dimethoxy-4-methylphenyl) pentan-2-amine]
- EC50 (5-HT2B [5]; 5-HT2b (IP1 agonism), Table 2): 2.3e-05 M
- HTR response (C57BL/6J mice [2]): indistinguishable from vehicle

Compound: CCC(N)Cc1c(OC)cc(C)cc1OC (centres unmarked) [Compound 40, 1-(2,6-dimethoxy-4-methylphenyl)butan-2-amine]
- EC50 (5-HT2A [4]; 5-HT2a (IP1 agonism), Table 2): 1e-05 M

Compound: CCC(N)Cc1cc(OC)c(Cl)cc1OC (centres unmarked) [Compound 41, 1-(4-chloro-2,5-dimethoxyphenyl)butan-2-amine]
- EC50 (5-HT2A [4]; 5-HT2a (IP1 agonism), Table 2): 1.9e-07 M
- EC50 (5-HT2B [5]; 5-HT2b (IP1 agonism), Table 2): 1.4e-05 M

Compound: CCCc1cc(OC)c(CC(N)CC)cc1OC (centres unmarked) [Compound 42, 1-(2,5-dimethoxy-4-propylphenyl)butan-2-amine]
- EC50 (5-HT2A [4]; 5-HT2a (IP1 agonism), Table 2): 2.1e-07 M

Compound: CCC(N)Cc1cc(OC)c(C(C)(F)F)cc1OC (centres unmarked) [Compound 50, 1-(4-(1,1-difluoroethyl)-2,5-dimethoxyphenyl)butan-2-amine]
- EC50 (5-HT2A [4]; [8]): 2.5e-08 M
- EC50 (5-HT2B [5]; [9]): 1.1e-07 M

Compound: CCC(N)Cc1cc(OC)c(C(F)(F)CC)cc1OC (centres unmarked) [Compound 53, 1-(4-(1,1-difluoropropyl)-2,5-dimethoxyphenyl)butan-2-amine]
- EC50 (5-HT2A [4]; [8]): 5.7e-08 M
- EC50 (5-HT2B [5]; [9]): 1.9e-07 M

Compound: CCC(N)Cc1cc(OC)c(CC(C)(F)F)cc1OC (centres unmarked) [Compound 58, 1-(4-(2,2-difluoropropyl)-2,5-dimethoxyphenyl)butan-2-amine]
- EC50 (5-HT2A [4]; [8]): 4.3e-06 M

Compound: COc1cc(CC(C)N)c(OC)cc1C (centres unmarked) [DOM, 2,5 Dimethoxy-4-methylamphetamine, reference compound]
- potency in humans relative to mescaline (humans): approximately 100 times
